Source: ChEMBL document CHEMBL1149472, “Homobivalent quinazolinimines as novel nanomolar inhibitors of cholinesterases with dirigible selectivity toward butyrylcholinesterase” (J Med Chem, 2006)

Legend:
[1] = Selectivity for horse serum BChE over electric eel AChE
Acetylcholinesterase = Acetylcholinesterase (Electrophorus electricus, UniProt O42275); experiment: Inhibition of electric eel AChE
Butyrylcholinesterase = Butyrylcholinesterase (Equus caballus, UniProt Q9N1N9); experiment: Inhibition of horse serum BChE
Sequence of Butyrylcholinesterase (Q9N1N9 whole entry): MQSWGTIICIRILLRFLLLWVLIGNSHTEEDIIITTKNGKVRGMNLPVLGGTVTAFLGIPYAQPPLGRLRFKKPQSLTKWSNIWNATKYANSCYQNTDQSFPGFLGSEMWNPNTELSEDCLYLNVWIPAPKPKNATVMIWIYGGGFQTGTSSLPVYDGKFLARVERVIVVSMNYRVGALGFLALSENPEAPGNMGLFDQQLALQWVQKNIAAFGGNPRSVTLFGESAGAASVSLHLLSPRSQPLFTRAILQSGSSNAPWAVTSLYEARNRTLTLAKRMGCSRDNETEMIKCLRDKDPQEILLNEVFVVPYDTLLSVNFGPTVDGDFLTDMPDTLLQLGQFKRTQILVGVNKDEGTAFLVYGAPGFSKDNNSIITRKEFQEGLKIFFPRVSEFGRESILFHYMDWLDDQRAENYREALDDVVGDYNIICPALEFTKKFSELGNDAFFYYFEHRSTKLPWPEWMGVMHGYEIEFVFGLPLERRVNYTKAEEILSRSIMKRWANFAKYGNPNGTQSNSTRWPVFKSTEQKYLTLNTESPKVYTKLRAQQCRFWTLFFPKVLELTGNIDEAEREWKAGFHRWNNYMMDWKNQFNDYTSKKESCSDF

[2] = read-out: -Log IC50 (converted)

Sequence of Acetylcholinesterase (O42275 whole entry): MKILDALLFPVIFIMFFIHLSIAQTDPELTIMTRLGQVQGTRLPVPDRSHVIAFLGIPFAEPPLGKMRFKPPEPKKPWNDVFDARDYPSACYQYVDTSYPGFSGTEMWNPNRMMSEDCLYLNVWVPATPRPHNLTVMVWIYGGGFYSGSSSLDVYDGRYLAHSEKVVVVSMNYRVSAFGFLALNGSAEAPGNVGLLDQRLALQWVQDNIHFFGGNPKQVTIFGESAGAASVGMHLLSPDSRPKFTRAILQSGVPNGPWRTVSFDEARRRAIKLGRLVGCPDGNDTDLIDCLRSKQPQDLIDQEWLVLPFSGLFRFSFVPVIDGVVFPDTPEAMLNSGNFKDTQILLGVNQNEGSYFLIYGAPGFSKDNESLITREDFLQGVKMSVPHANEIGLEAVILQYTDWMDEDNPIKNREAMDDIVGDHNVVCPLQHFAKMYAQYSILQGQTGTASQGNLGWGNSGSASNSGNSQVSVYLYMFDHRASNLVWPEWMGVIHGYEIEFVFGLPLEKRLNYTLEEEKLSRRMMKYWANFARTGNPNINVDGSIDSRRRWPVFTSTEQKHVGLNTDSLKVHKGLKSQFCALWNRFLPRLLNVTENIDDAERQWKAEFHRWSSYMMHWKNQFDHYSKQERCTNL

Row | Compound | Ratio IC50 [1] | IC50 (Acetylcholinesterase) [nM] | IC50 (Butyrylcholinesterase; read-out: IC50) [nM] | IC50 (Butyrylcholinesterase; [2]) [nM]
1 | CCCC/N=c1/c2ccccc2nc2n1CCC2 | 1.7 | 9500 | 5500 | –
2 | c1ccc2/c(=N/CCCCCCC/N=c3\c4ccccc4nc4n3CCCCC4)n3c(nc2c1)CCCCC3 | 1.6 | 40 | 24 | –
3 | c1ccc2/c(=N/CCCCCCCC/N=c3/c4ccccc4nc4n3CCC4)n3c(nc2c1)CCC3 | 12 | 58 | 4.8 | –
4 | c1ccc2/c(=N/CCCCCCCC/N=c3/c4ccccc4nc4n3CCCC4)n3c(nc2c1)CCCC3 | 4.9 | 37 | 7.6 | –
5 | c1ccc2/c(=N/CCCCCCC/N=c3\c4ccccc4nc4n3CCCCCC4)n3c(nc2c1)CCCCCC3 | 2.4 | 65 | 27 | –
6 | CCCC/N=c1/c2ccc(Cl)cc2nc2n1CCC2 | 1.7 | – | 2300 | –
7 | c1ccc2/c(=N/CCCCCCC/N=c3\c4ccccc4nc4n3CCC4)n3c(nc2c1)CCC3 | 0.9 | 79 | 88 | –
8 | Clc1ccc2c(c1)N=C1CCCN1C2NCCCCCCCC/N=c1/c2ccc(Cl)cc2nc2n1CCC2 (stereo unspecified) | 1.1 | 50.2 | 45.4 | –
9 | Clc1ccc2/c(=N/CCCCCCC/N=c3\c4ccc(Cl)cc4nc4n3CCC4)n3c(nc2c1)CCC3 | 1 | 59 | 61 | –
10 | c1ccc2/c(=N/CCCCCCCC/N=c3/c4ccccc4nc4n3CCCCCC4)n3c(nc2c1)CCCCCC3 | 189 | 14400 | 76 | –
11 | N=c1c2ccccc2nc2n1CCCCCC2 | 4.9 | 14600 | 3000 | –
12 | c1ccc2/c(=N/CCCCCCC/N=c3\c4ccccc4nc4n3CCCC4)n3c(nc2c1)CCCC3 | 9 | 77 | 8.5 | –
13 | CC(=O)/N=c1/c2ccccc2nc2n1CCC2 | 0.6 | 115000 | 204000 | 428000
14 | N=c1c2ccccc2nc2n1CCC2 | 1.8 | 13200 | 7200 | 716
15 | c1ccc2/c(=N/CCCCCCCC/N=c3/c4ccccc4nc4n3CCCCC4)n3c(nc2c1)CCCCC3 | 98 | 1280 | 13 | –
